Measurements published in US6133279A, “Therapeutic agents for renal diseases and organ preservatives” (Chugai Seiyaku Kabushiki Kaisha, priority 1996, dated 2000).
Read-outs that look alike come from different tables or passages of the source.

Tested on: porcine kidney-derived LLC-PK1 cells
Test: Protective effect against oxidized LDL-induced injury of porcine kidney-derived LLC-PK1 cells (1)
Format: cell-based
Settings: Sus scrofa, LLC-PK1, 6 h, mean ± standard deviation, read-out: Cytoprotection rate (%)
Method: For the purpose of evaluating in vitro cytoprotective effect of the compounds of the present invention, a cytoprotective study was performed using porcine kidney-derived LLC-PK1 cells (ATCC-CRL-13921) injured by oxidized low-density lipoprotein (oxidized LDL).
Oxidized LDL was prepared by incubating 1 mg/ml of rabbit LDL in PBS (-) in the presence of 10 μM CuSO4 at 37° C. for 24 hours. Cell culture was carried out by plating 1.25×10^4 cells/250 μl/well on a 48-well plate containing M199 medium containing 3% FBS. Test compounds were dissolved or suspended in ethanol and added to the wells in an amount of 1.25 μl/well to a concentration of 0.1, 1 or 10 μM in each well. After 16 hours or immediately after the addition of the compounds, oxidized LDL was added to the wells. Probucol, α-tocopherol and Trolox which is a water-soluble analogue of α-tocopherol were used as reference control compounds. Oxidized LDL was diluted twice with saline and then added to the wells in an amount of 62.5 μl/well to a concentration of 100 μg/ml and the cells were cultured for 6 hours after addition of the oxidized LDL. Then, 162.5 μl/well of the culture medium were collected and measured for the lactate dehydrogenase (LDH) level (LD-L: SIGNA DIAGNOSTICS) having leaked into the medium.
The magnitude of cytoprotective effect was expressed as the cytoprotection rate which was determined by calculating the data assuming that the magnitude in wells containing oxidized LDL is 0% and that the magnitude in wells containing saline is 100%.

[1] = compound added 16 hours before adding oxidized LDL
[2] = compound added immediately before adding oxidized LDL

| SMILES | inhibition at 0.1 µM [1] [%] | inhibition at 0.1 µM [2] [%] | inhibition at 1 µM [1] [%] | inhibition at 1 µM [2] [%] | inhibition at 10 µM [1] [%] | inhibition at 10 µM [2] [%] |
| --- | --- | --- | --- | --- | --- | --- |
| CC(C)(C)c1cc2c(c(C(C)(C)C)c1O)CCO2 [Example 1, 4,6-Di-t-butyl-5-hydroxy-2,3-dihydrobenzofuran] | 22.3 ± 2.8 | 7.6 ± 1.4 | 104 ± 3.3 | 99.7 ± 0.4 | 100.9 ± 0.5 | 100.9 ± 0.3 |
| CC(=O)Oc1c(C(C)(C)C)cc2c(c1C(C)(C)C)CC(C)(C)O2 [Example 3, 5-Acetoxy-4,6-di-t-butyl-2,2-dimethyl-2,3-dihydrobenzofuran] | 27 ± 18.2 | -6.5 ± 2.7 | 1.8 ± 6.8 | -4 | 23.2 ± 11.3 | 4.3 ± 3.6 |
| CC1(C)Cc2c(cc(C(C)(C)C)c(O)c2C(C)(C)C)O1 [Example 4, 4,6-Di-t-butyl-5-hydroxy-2,2-dimethyl-2,3-dihydrobenzofuran] | 11.5 ± 8 | -9.6 ± 2.2 | 106 ± 1.2 | 103 | 100.4 ± 0.3 | 99.6 ± 0.8 |
| CC(C)(C)c1cc2c(c(C(C)(C)C)c1O)CC(C(C)(C)C)O2 (stereo not drawn) [Example 13, 2,4,6-Tri-t-butyl-5-hydroxy-2,3-dihydrobenzofuran] | 32 ± 2.8 | 11.9 ± 1.9 | 55.6 ± 15 | 97.8 | 99.9 ± 0.2 | 100.4 ± 0.4 |
| CC(C)(C)c1cc2c(c(C(C)(C)C)c1O)CC1(CCCC1)O2 [Example 18, 4,6-Di-t-butyl-5-hydroxy-2,3-dihydrobenzofuran-2-spiro-1'-cyclopentane] | -1.9 ± 17.3 | -4.5 ± 6.3 | 66.8 ± 22.2 | 98.4 | 99.9 ± 0.2 | 99.7 ± 0.2 |
| CC(C)(C)c1cc2c(c(C(C)(C)C)c1O)CC1(CCOCC1)O2 [Example 22, 4,6-Di-t-butyl-5-hydroxy-2,3-dihydrobenzofuran-2-spiro-4'-tetrahydropyran] | 3.5 ± 10.4 | -1.7 ± 0.2 | 102.2 ± 0.2 | 101 | 101 ± 0.5 | 101.1 ± 0.2 |
| CCCc1c2c(c(C(C)(C)C)c(O)c1C(C)(C)C)CC(C)(C)O2 [Example 25, 5-Hydroxy-4,6-di-t-butyl-2,2-dimethyl-7-propyl-2,3-dihydrobenzofuran] | 47.4 ± 6 | 1.4 ± 3.8 | 7.9 ± 10.8 | 0.8 | 28.6 ± 6.4 | 66.5 ± 7.7 |
| CC(C)(C)c1cc2occc2c(C(C)(C)C)c1O [Example 27, 4,6-Di-t-butyl-5-hydroxybenzofuran] | 44.1 ± 24.3 | 4.2 ± 1.4 | 96 ± 0.7 | 91 | 97.7 ± 1.7 | 96.8 ± 0.5 |
| CCCOc1cc(C(C)(C)C)c(O)c(C(C)(C)C)c1C [Example 31, 2,6-Di-t-butyl-3-methyl-4-propyloxyphenol] | -0.1 ± 18.7 | 6.9 ± 1.1 | 3.5 ± 18.5 | 15.7 | 68.8 ± 15.8 | 71.8 ± 6.9 |
| C/C(=C\CCC1(C)Cc2c(cc(C(C)(C)C)c(O)c2C(C)(C)C)O1)CO (stereo not drawn) [Example 46, 4,6-Di-t-butyl-5-hydroxy-2-(5-hydroxy-4-methyl-3(E)-pentenyl)-2-methyl-2,3-dihydrobenzofuran] | 11 ± 1.5 | -8.9 ± 3.1 | 53.5 ± 10 | 101 | 104 ± 2 | 104.4 ± 0.4 |
| CC1(CO)Cc2c(cc(C(C)(C)C)c(O)c2C(C)(C)C)O1 (stereo not drawn) [Example 48, 4,6-Di-t-butyl-5-hydroxy-2-hydroxymethyl-2-methyl-2,3-dihydrobenzofuran] | -0.5 ± 23.4 | 3.8 ± 0.3 | 84.2 ± 4.4 | 102 | 98.1 ± 0.7 | 98.2 ± 0.3 |
